Test [1] has as its target T1, H3R-453 (Homo sapiens, UniProt Q9Y5N1). Description: cell-based. Conditions: HEK293-EPAC stably expressing H3R isoform, read-out: H3R-453 α.
Test [2] concerns the target T2, H3R-445 (Homo sapiens, UniProt Q9Y5N1). Description: cell-based. Conditions: HEK293-EPAC stably expressing H3R isoform, read-out: H3R-445 α.
For test [3], the target named is T3, H3R-415 (Homo sapiens, UniProt Q9Y5N1). Briefly: cell-based. To be noted: HEK293-EPAC stably expressing H3R isoform, read-out: H3R-415 α.
The target in test [4] is T4, H3R-365 (Homo sapiens, UniProt Q9Y5N1). Description: cell-based. Conditions: HEK293-EPAC stably expressing H3R isoform, read-out: H3R-365 α.
Test [5] concerns the target T1, H3R-453. Conditions: […] Tris-HCl pH […] °C, […] h; labelled compound.
For test [6], the target named is T5, H3R-373 (Homo sapiens, UniProt Q9Y5N1, INS445KMKKKTCL). Conditions: […] Tris-HCl pH […] °C, […] h; labelled compound.
The target of test [7] is T4, H3R-365. Briefly: biochemical.
The target in test [8] is T2, H3R-445. Briefly: biochemical.
Test [9] concerns the target T3, H3R-415. Description: biochemical.
For test [10], the target named is T6, H3R-413 (Homo sapiens, UniProt Q9Y5N1, DEL274-305). Briefly: biochemical.
In test [11] the target is T5, H3R-373.
Test [12] deals with T1, H3R-453.
The target in test [13] is T6, H3R-413. Description: biochemical. The source holds these as a separate data set.
Test [14] addresses T4, H3R-365. Description: biochemical. The source holds these as a separate data set.
Test [15] has as its target T2, H3R-445. Briefly: biochemical. The source holds these as a separate data set.
The target in test [16] is T3, H3R-415. Description: biochemical. This is another data set of the same source.
Test [17] addresses T1, H3R-453. Briefly: cell-based. The arrangement: species or system HEK293-EPAC stably expressing H3R isoform. To be noted: HEK293-EPAC stably expressing H3R isoform, read-out: H3R-453 α.
Test [18] concerns the target T2, H3R-445. Description: cell-based. The arrangement: species or system HEK293-EPAC stably expressing H3R isoform. Conditions: HEK293-EPAC stably expressing H3R isoform, read-out: H3R-445 α.
Test [19] concerns the target T3, H3R-415. Description: cell-based. To be noted: HEK293-EPAC stably expressing H3R isoform, read-out: H3R-415 α. Details: species or system HEK293-EPAC stably expressing H3R isoform.
The target in test [20] is T6, H3R-413. Briefly: cell-based. The arrangement: species or system HEK293-EPAC stably expressing H3R isoform.
Test [21] has as its target T6, H3R-413. Briefly: cell-based. Details: species or system HEK293-EPAC stably expressing H3R isoform. Conditions: HEK293-EPAC stably expressing H3R isoform, read-out: H3R-413 α.
Test [22] addresses T5, H3R-373. Briefly: cell-based. The arrangement: species or system HEK293-EPAC stably expressing H3R isoform. To be noted: HEK293-EPAC stably expressing H3R isoform, read-out: H3R-373 α.
For test [23], the target named is T4, H3R-365. Description: cell-based. Details: species or system HEK293-EPAC stably expressing H3R isoform. Conditions: HEK293-EPAC stably expressing H3R isoform, read-out: H3R-365 α.
Test [24] addresses T1, H3R-453. The arrangement: species or system HEK293-EPAC stably expressing H3R isoform. To be noted: agonist.
The target in test [25] is T2, H3R-445. Description: cell-based. The arrangement: species or system HEK293-EPAC stably expressing H3R isoform.
The target of test [26] is T3, H3R-415. Briefly: cell-based. The arrangement: species or system HEK293-EPAC stably expressing H3R isoform.
In test [27] the target is T5, H3R-373. The arrangement: species or system HEK293-EPAC stably expressing H3R isoform. To be noted: agonist.

Like-named read-outs stand apart in the source and are kept apart here.

As a reminder, the pKD is −log10 of the KD, conventionally taken in molar units. Low values mean a large KD, high ones a small KD. A word on the Kd: it is a measure of binding affinity in units of concentration. Read a low Kd as a tighter complex. One may read the Ki as a dissociation constant, usually derived from enzyme kinetics or from competition with a known ligand. Lower therefore signals tighter binding. Broadly, the EC50 is the concentration needed to bring the measured effect to its halfway point.

Consider `C[C@@H](N)Cc1cnc[nH]1` [RAMH, (2R)-1-(3H-imidazol-4-yl)propan-2-amine], for which the Emax on H3R-453 [1] turned out to be 140 ± 10%; at H3R-445 [2] it was 100%; at H3R-415 [3], 110 ± 40%; on H3R-365 [4], 100 ± 20%.

As for `CNCCc1c[nH]cn1` [[3H]NAMH], the negative-log KD (pKD) turned out to be 9.0 ± 0.1 on H3R-453 [5] and 9.6 ± 0.1 at H3R-373 [6]. The Kd is 0.501 nM on H3R-365 [7], 1.26 nM on H3R-445 [8], 1.26 nM on H3R-415 [9] and 1.26 nM on H3R-413 [10].

For the molecule `NCCCCCc1c[nH]cn1` [impentamine, 5-(3H-imidazol-4-yl)pentan-1-amine], the Ki on H3R-373 [11] is 1.58 nM; at H3R-453 [12], 3.16 nM; at H3R-413 [13], 3.98 nM; at H3R-365 [14], 2 nM; on H3R-445 [15] it was 2.51 nM; at H3R-415 [16] it was 3.98 nM. Besides, the Emax turned out to be 50 ± 10% at H3R-453 [17]; 60 ± 20% at H3R-445 [18]; 50 ± 10% at H3R-415 [19]; 50 ± 10% on H3R-413 [21]; 70 ± 10% at H3R-373 [22]; 100 ± 30% on H3R-365 [23]. The same molecule had an EC50 at H3R-413 [20] of 6.31 nM.

For the molecule `c1ccc(COCCCc2c[nH]cn2)cc1` [proxyfan, 4-[3-(phenylmethoxy)propyl]-3H-imidazole], the figures for the Ki at H3R-373 [11] and on H3R-413 [13] were 1 nM and 5.01 nM, respectively. Besides, the “H3R-453 pEC50” value on H3R-453 [24] turned out to be 7.2 ± 0.4 M. For the same molecule, the Emax at H3R-453 [17] turned out to be 100 ± 20%; at H3R-445 [18], 90 ± 10%; at H3R-415 [19], 70 ± 10%; on H3R-413 [21] it was 90 ± 10%; at H3R-373 [22], 80 ± 10%; at H3R-365 [23], 100 ± 10%. The figures for the EC50 at H3R-445 [25], at H3R-415 [26] and at H3R-413 [20] were 7.94 nM, 15.8 nM and 31.6 nM, respectively. The “H3R-373 pEC50” value on H3R-373 [27] came to 8.0 ± 0.0 M.

Source of the values: doi:10.1101/2023.12.06.570349v1 (biorxiv, 2023).
